# Data from patent publication US9540361B2, “N-substituted azetidine derivatives” (Merck Sharp & Dohme B.V., priority 2010, dated 2017).
# Marks after values point to notes of the source that are not given here.
# Columns and labels:
# [1] = system: MCF-7H cells; experiment: 7-day in vitro proliferation assay in tamoxifen-resistant MCF-7H breast cancer cells (methyl-3H-thymidine incorporation); assay type: cell-based, human; settings: for Efficacy (fractional to E2): fraction of maximal response, E2 = 1.00 per definition; for Efficacy (fractional to E2) / % E2: MCF-7H; for % E2: relative potency to induce proliferation, normalized against E2 (=100 per definition); for Emax: Homo sapiens, MCF7, 168 h, efficacy (fraction of maximal response relative to E2) in MCF-7H proliferation, read-out: MCF7 ia; for induce proliferation of MCF-7H breast cancer cells: potency range and efficacy in words
# Description: To what extent compounds are capable of stimulating proliferation in ER-positive, tamoxifen-resistant breast cancer cells is tested in a 7-day in vitro proliferation assay using MCF-7H cells. More specifically, this in vitro bioassay is used to determine the efficacy (fraction of maximal response), pEC50, and relative potency of the compound to induce proliferation by comparing the data for this compound with those of the reference compound 17β-estradiol (E2) in the same test.
# A more detailed description of the method used is as follows.
# Cell culture: The human epithelial breast cancer cell line MCF-7H (origin: Hubrecht Laboratory, Utrecht, The Netherlands) was routinely maintained in complete medium which is a 1:1 mixture of Ham's F12 medium and Dulbecco's Modified Eagle Medium (DMEM; Invitrogen, Carlsbad, USA) without phenol red and enriched with 5% fetal calf serum (FCS; Hyclone, Utah, USA), 100 μg/ml streptomycin and 100 units/ml penicillin adapted to contain:
# Cells were grown in 80 cm^2 culture flasks (Nunc, Roskilde, Denmark) and kept in an atmosphere of 5% CO2-95% air at 37 degrees Celsius. Cells were subcultured when they reached about 80-90% confluence, resulting in one passage a week. Subculturing includes detaching the cells using trypsin/EDTA and diluting the cell suspension 10 times.
# Methyl-^3H-thymidine incorporation assay: MCF-7H cells were starved overnight in assay medium containing 5% charcoal-treated (CT) bovine calf serum (BCS; Hyclone) instead of FCS and a final concentration of 1.0 μg/ml bovine insulin, the day before plating. Cells were plated in assay medium containing 5% CT BCS, in white 24-wells plates (Perkin Elmer, Shelton, USA), at a density of 7.5×10^3 cells per well, each well containing 630 μL assay medium. Cells were allowed to attach and spread for 24 h before stimulation with reference and/or test compound(s). After a stimulation period of 7 days, 0.25 μCi/well of methyl-^3H-thymidine (GE Healthcare Limited, Buckinghamshire, UK) was added per well. Cultures were maintained in an atmosphere of 5% CO2-95% air at 37 degrees Celsius. After overnight incubation, excess methyl-^3H-thymidine was aspirated and the cells were washed with phosphate-buffered saline (PBS). After 1 h of incubation with 1 ml scintillation fluid Microscint-20 (Perkin Elmer), radioactivity was measured in a Packard TOP-count NXT microplate scintillation counter (Perkin Elmer).
# [2] = molecular target: T1, estrogen receptor alpha (Homo sapiens, UniProt P03372); experiment: ERα downregulation assay in T47D breast cancer cells (ERα ELISA); assay type: cell-based; settings: 24 hours; for DR (%): downregulation of ERα relative to fulvestrant (100%), 1E-5 M, negative = upregulation
# T1 construct: endogenous in cells; host or cells: T47D human breast cancer cells (ATCC)
# T1 sequence (P03372 1-595): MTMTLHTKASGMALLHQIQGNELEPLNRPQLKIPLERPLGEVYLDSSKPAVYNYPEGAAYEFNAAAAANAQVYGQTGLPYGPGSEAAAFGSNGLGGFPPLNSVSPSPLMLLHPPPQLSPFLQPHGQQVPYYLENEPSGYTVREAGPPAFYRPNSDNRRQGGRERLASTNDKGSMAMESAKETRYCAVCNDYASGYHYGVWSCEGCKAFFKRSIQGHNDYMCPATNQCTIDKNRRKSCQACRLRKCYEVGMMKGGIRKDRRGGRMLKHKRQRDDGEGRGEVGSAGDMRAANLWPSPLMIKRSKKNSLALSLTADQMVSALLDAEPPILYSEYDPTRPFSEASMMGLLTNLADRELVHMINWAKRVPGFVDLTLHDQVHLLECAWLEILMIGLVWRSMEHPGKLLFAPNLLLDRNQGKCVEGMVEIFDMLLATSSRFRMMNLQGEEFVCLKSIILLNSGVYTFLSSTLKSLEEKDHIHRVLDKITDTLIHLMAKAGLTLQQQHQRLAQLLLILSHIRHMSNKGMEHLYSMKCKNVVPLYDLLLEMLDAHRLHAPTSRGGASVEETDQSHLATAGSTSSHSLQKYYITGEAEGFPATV
# In short: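 T47D cells were treated with 1E-5 M test compound for 24 hours, then lysed in the well. ERα protein content was measured by ELISA. Efficacy is given as fraction of maximal response relative to fulvestrant, defined as 100% downregulation.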
# [3] = molecular target: T2, human estrogen receptor α (hERα) (Homo sapiens, UniProt P03372); experiment: antagonistic activity in CHO cells co-transfected with hERα, rat oxytocin promoter and luciferase reporter gene; assay type: cell-based; settings: antagonism of 17β-estradiol-induced transactivation, CHO-hERα-RO-LUC; read-out: ERα pIC50 (converted)
# T2 sequence (P03372 1-595): T1 sequence (P03372 1-595)
# In short: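 Efficacy is the fraction of maximal inhibition of 17β-estradiol-activated receptor, normalised to ICI 164,384 maximal inhibition. Read-out is luciferase in CHO cells stably co-transfected with human ERα and an oxytocin-promoter-driven reporter.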
Structure (SMILES),Efficacy (fractional to E2) [1],% E2 [1],DR (%) [2] [%],IC50 [3] [nM],further results
CC/C(=C(\c1ccccc1)c1ccc(OCCN(C)C)cc1)c1ccccc1 [Tamoxifen],0.58,0.008%,,,
"CCCN1CC(Oc2ccc([C@@H]3c4ccc(O)cc4CC[C@@H]3c3ccccc3)cc2)C1.Cl [compound 6q, (5R,6S)-6-phenyl-5-(4-(1-propylazetidin-3-yloxy)phenyl)-5,6,7,8-tetrahydronaphthalen-2-ol hydrochloride]",,,47,0.251,Emax [1]: 6%
"C#C[C@]1(O)CC[C@H]2[C@@H]3CCc4cc(O)ccc4[C@H]3CC[C@@]21C [EE, Ethynyl Estradiol]",0.99,137%,,,induce proliferation of MCF-7H breast cancer cells [1]: in the picomolar range and with full efficacy
O=C(c1ccc(OC2CN(CCCF)C2)cc1)c1c(-c2ccccc2Cl)noc1-c1ccc(O)cc1 [compound 7ah],,,94,2.51,Emax [1]: 6%
CC/C(=C(/c1ccc(OCCN(C)C)cc1)c1cccc(O)c1)c1ccccc1 [Droloxifene],0.38,5.9%,,,
"CCCN1CC(Oc2ccc(C(=O)c3c(-c4ccc(O)cc4)noc3-c3ccccc3C)cc2)C1.Cl [compound 7az, (3-(4-hydroxyphenyl)-5-o-tolylisoxazol-4-yl)(4-(1-propylazetidin-3-yloxy)-phenyl)methanone hydrochloride]",,,88,6.31,Emax [1]: 8%
C[C@]12CC[C@@H]3c4ccc(O)cc4C[C@@H](CCCCCCCCC[S+]([O-])CCCC(F)(F)C(F)(F)F)[C@H]3[C@@H]1CC[C@@H]2O (stereo partly drawn) [Fulvestrant],0.02,18.9%,,,"Downregulation (% of fulvestrant) ([2]; 1E-5 M test compound, fulvestrant = 100 per definition, negative number = upregulation or stabilization): 100 ^a %"
"CCCN1CC(Oc2ccc(-c3c(-c4ccc(O)cc4)sc4cc(O)ccc34)cc2)C1.O=C(O)C(F)(F)F [compound 6b, 2-(4-hydroxyphenyl)-3-(4-(1-propylazetidin-3-yloxy)phenyl)benzo[b]thiophen-6-ol 2,2,2-trifluoroacetate]",,,53,0.794,Emax [1]: 10%
"CC/C(=C(\c1ccc(O)cc1)c1ccc(OCCN(C)C)cc1)c1ccccc1 [4OHT, 4-OH-tamoxifen]",0.49,2.3%,,,
"CCCN1CC(Oc2ccc(C(=O)c3c(-c4ccc(O)cc4)sc4cc(O)ccc34)cc2)C1.O=C(O)C(F)(F)F [compound 6d, (6-hydroxy-2-(4-hydroxyphenyl)benzo[b]thiophen-3-yl)(4-(1-propylazetidin-3-yloxy)phenyl)methanone 2,2,2-trifluoroacetate]",,,79,1.58,Emax [1]: 5%
"O=C(O)C(F)(F)F.O=C(c1ccc(OC2CN(CCCF)C2)cc1)c1c(-c2ccc(O)cc2)sc2cc(O)ccc12 [compound 7j, (4-(1-(3-fluoropropyl)azetidin-3-yloxy)phenyl)(6-hydroxy-2-(4-hydroxyphenyl)benzo[b]thiophen-3-yl)methanone 2,2,2-trifluoroacetate]",,,98,2.51,
"CCCN1CC(Oc2ccc(C(=O)c3c(-c4ccc(O)cc4)noc3-c3ccccc3Cl)cc2)C1 [compound 6n, (5-(2-chlorophenyl)-3-(4-hydroxyphenyl)isoxazol-4-yl)(4-(1-propylazetidin-3-yloxy)phenyl)methanone]",,,62,3.98,
"Cl.O=C(c1ccc(OC2CN(CC3CCC3)C2)cc1)c1c(-c2ccc(O)cc2)sc2cc(O)ccc12 [compound 7n, (4-(1-(cyclobutylmethyl)azetidin-3-yloxy)phenyl)(6-hydroxy-2-(4-hydroxyphenyl)benzo[b]thiophen-3-yl)methanone hydrochloride]",,,77,1.26,
"CCCN1CC(Oc2ccc(C(=O)c3c(-c4ccc(O)c(C)c4)sc4cc(O)ccc34)cc2)C1.Cl [compound 7r, (6-hydroxy-2-(4-hydroxy-3-methylphenyl)benzo[b]thiophen-3-yl)(4-(1-propylazetidin-3-yloxy)phenyl)methanone hydrochloride]",,,94,2,
O=C(c1ccc(OCCN2CCCCC2)cc1)c1c(-c2ccc(O)cc2)sc2cc(O)ccc12 [Raloxifene],0.33,21.1%,,,
"CCCN1CC(Oc2ccc(C(=O)c3c(-c4ccccc4Cl)noc3-c3cccc4[nH]ncc34)cc2)C1.O=C(O)C(F)(F)F [compound 7as, (3-(2-chlorophenyl)-5-(1H-indazol-4-yl)isoxazol-4-yl)(4-(1-propylazetidin-3-yl-oxy)phenyl)methanone 2,2,2-trifluoroacetate]",,,55,39.8,
"CC(C)CN1CC(Oc2ccc(C(=O)c3c(-c4ccc(O)cc4)sc4cc(O)ccc34)cc2)C1.Cl [compound 7m, (6-hydroxy-2-(4-hydroxyphenyl)benzo[b]thiophen-3-yl)(4-(1-isobutylazetidin-3-yloxy)phenyl)methanone hydrochloride]",,,73,1,
"CCCN1CC(Oc2ccc(C(=O)c3c(-c4ccc(O)cc4C)sc4cc(O)ccc34)cc2)C1.Cl [compound 7q, (6-hydroxy-2-(4-hydroxy-2-methylphenyl)benzo[b]thiophen-3-yl)(4-(1-propylazetidin-3-yloxy)phenyl)methanone hydrochloride]",,,64,1.26,
"CCCN1CC(Oc2ccc(C(=O)c3c(-c4ccccc4Cl)noc3-c3ccc(O)cc3)cc2F)C1.Cl [compound 7at, (3-(2-chlorophenyl)-5-(4-hydroxyphenyl)isoxazol-4-yl)(3-fluoro-4-(1-propylazetidin-3-yloxy)phenyl)methanone hydrochloride]",,,101,1.58,
"C[C@]12CC[C@@H]3c4ccc(O)cc4CC[C@H]3[C@@H]1CC[C@@H]2O [E2, 17β-estradiol]",1.00 ^a,100 ^a %,,,induce proliferation of MCF-7H breast cancer cells [1]: in the picomolar range and with full efficacy
"CCCN1CC(Oc2ccc(C(OC)c3c(-c4ccccc4Cl)noc3-c3ccc(O)cc3)cc2)C1 (stereo not drawn) [compound 7aw, 4-(3-(2-chlorophenyl)-4-(methoxy(4-(1-propylazetidin-3-yloxy)phenyl)methyl)-isoxazol-5-yl)phenol]",,,64,7.94,
"CCCN1CC(Oc2ccc(-c3c(-c4ccccc4CC)noc3-c3ccc(O)cc3)cc2)C1.O=C(O)C(F)(F)F [compound 7ad, 4-(3-(2-ethylphenyl)-4-(4-(1-propylazetidin-3-yloxy)phenyl)isoxazol-5-yl)-phenol 2,2,2-trifluoroacetate]",,,92,1,
COc1ccc(-c2sc3cc(O)ccc3c2Oc2ccc(OCCN3CCCCC3)cc2)cc1 [Arzoxifene],0.34,99.1%,,,
